Laboratory results taken from ChEMBL document CHEMBL4118166, “Design, synthesis and evaluation of potent and selective inhibitors of mono-(ADP-ribosyl)transferases PARP10 and PARP14” (Bioorg Med Chem Lett, 2018).
Converted amounts (≈) assume the structure as drawn.

Key:
[1] = target: T1, Protein mono-ADP-ribosyltransferase PARP10 (Homo sapiens, UniProt Q53GL7); assay: Inhibition of full length recombinant His6-tagged human PARP10 expressed in Escherichia coli BL21(DE3) preincubated for 15 mins followed by biotinylated NAD+ addition by chemiluminescence assay
T1 sequence (Q53GL7 whole entry): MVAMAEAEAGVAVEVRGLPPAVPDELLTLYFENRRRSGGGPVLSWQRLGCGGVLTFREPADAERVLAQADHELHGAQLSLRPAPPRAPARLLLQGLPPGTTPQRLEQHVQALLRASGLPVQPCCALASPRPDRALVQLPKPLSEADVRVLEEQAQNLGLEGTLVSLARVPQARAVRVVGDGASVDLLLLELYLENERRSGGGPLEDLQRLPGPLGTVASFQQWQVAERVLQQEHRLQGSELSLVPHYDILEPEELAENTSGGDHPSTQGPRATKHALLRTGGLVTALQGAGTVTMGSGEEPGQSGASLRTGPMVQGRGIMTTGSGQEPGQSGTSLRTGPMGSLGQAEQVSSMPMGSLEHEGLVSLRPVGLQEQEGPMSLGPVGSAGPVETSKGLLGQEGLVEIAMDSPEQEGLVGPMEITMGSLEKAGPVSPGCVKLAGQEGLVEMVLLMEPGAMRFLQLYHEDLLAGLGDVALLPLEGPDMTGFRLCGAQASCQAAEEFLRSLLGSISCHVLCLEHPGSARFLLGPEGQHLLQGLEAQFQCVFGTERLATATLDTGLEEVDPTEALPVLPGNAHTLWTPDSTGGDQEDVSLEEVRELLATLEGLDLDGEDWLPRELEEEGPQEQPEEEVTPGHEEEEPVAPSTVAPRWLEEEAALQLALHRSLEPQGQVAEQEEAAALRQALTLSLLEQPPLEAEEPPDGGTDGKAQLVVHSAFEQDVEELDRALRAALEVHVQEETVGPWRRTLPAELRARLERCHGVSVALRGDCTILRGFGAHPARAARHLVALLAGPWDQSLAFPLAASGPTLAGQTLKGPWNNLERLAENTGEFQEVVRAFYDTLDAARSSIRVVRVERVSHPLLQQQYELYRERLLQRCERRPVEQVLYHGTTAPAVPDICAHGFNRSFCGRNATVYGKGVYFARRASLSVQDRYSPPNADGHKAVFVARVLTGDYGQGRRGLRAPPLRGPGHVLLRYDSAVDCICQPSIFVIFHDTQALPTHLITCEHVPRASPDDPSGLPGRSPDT

[2] = Metabolic stability in mouse liver microsomes compound remaining level at 5 uM in absence of co-factors after 2 hrs by LC-MS/MS analysis; format: ADME, microsome; details: read-out: Stability
[3] = Thermodynamic solubility of the compound in phosphate buffer at pH 7.4 after 24 hrs by HPLC/UV based shake flask method; format: physicochemical; details: read-out: Therm_solubility
[4] = Metabolic stability in mouse liver microsomes assessed as compound remaining level at 5 uM after 2 hrs in presence of G-6-P, G-6-PDH, MgCl2 and NADP+ by LC-MS/MS analysis; format: ADME, microsome; details: read-out: Stability
[5] = target: T2, Protein mono-ADP-ribosyltransferase PARP15 (Homo sapiens, UniProt Q460N3); assay: Inhibition of full length recombinant His6-tagged PARP15 catalytic domain (unknown origin) expressed in Escherichia coli BL21(DE3) by fluorescence based assay
T2 sequence (Q460N3 whole entry): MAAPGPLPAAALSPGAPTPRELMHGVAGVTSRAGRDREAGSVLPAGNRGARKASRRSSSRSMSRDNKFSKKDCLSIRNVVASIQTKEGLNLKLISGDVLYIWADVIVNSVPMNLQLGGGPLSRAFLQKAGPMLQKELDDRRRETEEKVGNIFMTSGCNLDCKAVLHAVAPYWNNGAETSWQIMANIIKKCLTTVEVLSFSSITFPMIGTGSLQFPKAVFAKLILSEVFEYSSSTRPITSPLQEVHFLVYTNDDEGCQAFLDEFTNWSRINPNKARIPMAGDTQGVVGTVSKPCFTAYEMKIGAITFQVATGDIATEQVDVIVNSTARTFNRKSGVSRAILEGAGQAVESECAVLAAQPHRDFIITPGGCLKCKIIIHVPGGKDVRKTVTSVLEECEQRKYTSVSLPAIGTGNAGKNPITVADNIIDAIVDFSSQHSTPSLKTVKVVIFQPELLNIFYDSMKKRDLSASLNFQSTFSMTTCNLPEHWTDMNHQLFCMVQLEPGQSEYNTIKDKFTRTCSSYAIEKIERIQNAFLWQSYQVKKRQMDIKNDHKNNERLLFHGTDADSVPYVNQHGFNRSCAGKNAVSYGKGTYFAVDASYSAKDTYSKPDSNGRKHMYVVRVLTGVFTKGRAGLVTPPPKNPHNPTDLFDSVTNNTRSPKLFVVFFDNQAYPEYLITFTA

[6] = target: Protein mono-ADP-ribosyltransferase PARP14 (Homo sapiens) (UniProt Q460N5); assay: Inhibition of full length recombinant His6-tagged human PARP14 WWA/catalytic domain expressed in Escherichia coli BL21(DE3) at 5 uM preincubated for 15 mins followed by biotinylated NAD+ addition by chemiluminescence assay relative to control
Protein mono-ADP-ribosyltransferase PARP14 (Homo sapiens), sequence (Q460N5 whole entry, the tested form may be a part): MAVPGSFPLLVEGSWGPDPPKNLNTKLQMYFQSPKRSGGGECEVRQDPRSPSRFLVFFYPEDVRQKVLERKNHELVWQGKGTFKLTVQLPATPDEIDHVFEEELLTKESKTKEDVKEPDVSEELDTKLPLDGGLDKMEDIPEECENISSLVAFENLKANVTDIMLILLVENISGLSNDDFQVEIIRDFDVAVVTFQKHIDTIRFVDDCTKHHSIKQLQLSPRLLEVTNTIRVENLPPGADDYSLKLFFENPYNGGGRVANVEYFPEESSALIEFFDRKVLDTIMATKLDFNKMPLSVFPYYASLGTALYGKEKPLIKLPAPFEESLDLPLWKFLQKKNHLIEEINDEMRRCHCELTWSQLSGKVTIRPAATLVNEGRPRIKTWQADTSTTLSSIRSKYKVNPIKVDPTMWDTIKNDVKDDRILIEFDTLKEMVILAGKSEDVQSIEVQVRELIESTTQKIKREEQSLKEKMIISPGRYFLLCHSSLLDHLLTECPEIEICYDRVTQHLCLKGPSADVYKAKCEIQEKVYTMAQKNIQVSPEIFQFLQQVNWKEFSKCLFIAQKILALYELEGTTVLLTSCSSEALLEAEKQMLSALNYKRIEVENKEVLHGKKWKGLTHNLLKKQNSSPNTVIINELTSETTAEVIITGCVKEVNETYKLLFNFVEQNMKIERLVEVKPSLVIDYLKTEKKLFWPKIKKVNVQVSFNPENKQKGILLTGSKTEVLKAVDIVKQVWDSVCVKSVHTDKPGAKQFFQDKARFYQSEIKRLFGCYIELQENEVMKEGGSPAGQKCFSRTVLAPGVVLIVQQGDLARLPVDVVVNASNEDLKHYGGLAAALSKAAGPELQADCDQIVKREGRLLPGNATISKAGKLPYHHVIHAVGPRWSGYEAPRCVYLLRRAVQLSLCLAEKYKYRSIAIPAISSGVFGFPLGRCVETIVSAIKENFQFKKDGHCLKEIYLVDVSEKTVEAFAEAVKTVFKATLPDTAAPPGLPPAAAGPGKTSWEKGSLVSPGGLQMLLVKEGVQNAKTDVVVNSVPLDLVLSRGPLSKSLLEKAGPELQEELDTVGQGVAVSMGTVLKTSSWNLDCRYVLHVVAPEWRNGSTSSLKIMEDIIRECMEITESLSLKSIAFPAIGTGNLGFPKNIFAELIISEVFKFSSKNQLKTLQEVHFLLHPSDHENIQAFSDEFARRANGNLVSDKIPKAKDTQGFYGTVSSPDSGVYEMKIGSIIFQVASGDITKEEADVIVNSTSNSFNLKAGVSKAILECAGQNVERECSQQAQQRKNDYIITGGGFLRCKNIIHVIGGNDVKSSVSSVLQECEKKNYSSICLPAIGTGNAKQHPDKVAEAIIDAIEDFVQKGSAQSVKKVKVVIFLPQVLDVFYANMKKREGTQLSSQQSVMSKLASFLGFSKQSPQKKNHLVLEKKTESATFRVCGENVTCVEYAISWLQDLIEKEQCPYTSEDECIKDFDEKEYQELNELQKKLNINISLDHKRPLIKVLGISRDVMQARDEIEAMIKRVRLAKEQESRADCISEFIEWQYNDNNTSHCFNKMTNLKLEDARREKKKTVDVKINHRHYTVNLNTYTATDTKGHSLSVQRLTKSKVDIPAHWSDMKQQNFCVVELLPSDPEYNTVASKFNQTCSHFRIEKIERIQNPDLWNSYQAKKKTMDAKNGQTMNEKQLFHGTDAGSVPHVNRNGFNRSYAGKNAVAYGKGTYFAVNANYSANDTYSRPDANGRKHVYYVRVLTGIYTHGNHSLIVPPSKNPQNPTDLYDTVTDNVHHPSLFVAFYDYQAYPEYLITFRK

Structure (SMILES)	IC50 [1]	remaining at 2 h, 5 µM [2]	solubility thermodynamic at 24 h [3]	remaining at 2 h, 5 µM [4]	also measured
NC(=O)c1ccc(Oc2cccc(C(=O)N3CCC(c4ccccc4F)CC3)c2)cc1	470 nM	–	–	–	–
NC(=O)c1ccc(Oc2cccc(C(=O)N3CCN(c4ccc(F)cc4)CC3)c2)cc1	–	88.1%	60 µM (≈ 25.2 µg/mL)	39%	–
NC(=O)c1ccc(Oc2ccc(C(N)=O)cc2)cc1	–	–	–	–	IC50 [5]: 4170 nM
NC(=O)c1ccc(Oc2cccc(C(N)=O)c2)cc1	510 nM	–	–	–	–
NC(=O)c1ccc(Oc2cccc(C(=O)N3CCC(c4ccc(F)cc4)CC3)c2)cc1	–	91.8%	42 µM (≈ 17.6 µg/mL)	16.4%	–
NC(=O)c1ccc(Oc2cccc(C(=O)N3CCC(O)(c4ccccc4)CC3)c2)cc1	1500 nM	–	–	–	–
NC(=O)c1ccc(Oc2ccc(C(=O)N3CCC(c4cccc(F)c4)CC3)cc2)cc1	1220 nM	–	–	–	–
NC(=O)c1ccc(Oc2cccc(C(=O)N3CCC(O)(c4ccc(F)cc4)CC3)c2)cc1	–	100%	242 µM (≈ 105 µg/mL)	45.3%	–
NC(=O)c1ccc(Oc2ccc(C(=O)N3CCC(c4ccc(F)cc4)CC3)cc2)cc1	1650 nM	–	–	–	–
CCOC(=O)C1CCN(C(=O)c2cccc(Oc3ccc(C(N)=O)cc3)c2)CC1	1060 nM	–	–	–	inhibition [6]: 51%
